Source: ChEMBL document CHEMBL3396995, “Synthesis and biological evaluation of novel pyrrolidine acid analogs as potent dual PPARα/γ agonists” (Bioorg Med Chem Lett, 2015)

What was measured:
[1] = biological target: Cytochrome P450 2C19 (Homo sapiens, UniProt P33261); test: Inhibition of CYP2C19 (unknown origin); assay type: ADME
[2] = biological target: T1, Peroxisome proliferator-activated receptor alpha (Homo sapiens, UniProt Q07869); test: Binding affinity to PPARalpha (unknown origin) using fluorescein-tagged dual PPARalpha/gamma activator by homogeneous fluorescence polarization binding assay
T1 sequence (Q07869 whole entry): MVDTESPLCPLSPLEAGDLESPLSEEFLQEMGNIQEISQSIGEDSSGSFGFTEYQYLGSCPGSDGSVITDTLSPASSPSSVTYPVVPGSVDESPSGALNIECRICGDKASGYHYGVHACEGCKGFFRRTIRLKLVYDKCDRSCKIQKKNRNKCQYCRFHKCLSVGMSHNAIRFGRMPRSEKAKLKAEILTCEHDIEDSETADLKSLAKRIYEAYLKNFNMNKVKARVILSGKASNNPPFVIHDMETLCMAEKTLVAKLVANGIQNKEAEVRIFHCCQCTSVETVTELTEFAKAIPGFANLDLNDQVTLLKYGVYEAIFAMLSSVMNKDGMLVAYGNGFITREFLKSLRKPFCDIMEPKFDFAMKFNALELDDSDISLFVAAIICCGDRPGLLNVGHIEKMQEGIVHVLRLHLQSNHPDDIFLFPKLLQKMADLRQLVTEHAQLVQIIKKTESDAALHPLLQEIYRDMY

[3] = Half life in rat at 10 mg/kg, po; assay type: ADME, organism-based; set-up: dose 10 mg/kg, route oral; details: in vivo
[4] = system: Mus musculus; test: Lipid lowering activity in db/db mouse assessed as reduction in fasting triglyceride level at 10 mg/kg, po dosed once daily for 14 days; assay type: functional; details: 336 h
[5] = Oral bioavailability in rat at 10 mg/kg; assay type: ADME, organism-based; details: in vivo
[6] = system: Rattus norvegicus; test: Volume of distribution at steady state in rat at 10 mg/kg, po; assay type: ADME, organism-based; set-up: dose 10 mg/kg, route oral; details: in vivo
[7] = system: Mus musculus; test: Antidiabetic activity in db/db mouse assessed as reduction in fasting glucose level at 10 mg/kg, po dosed once daily for 14 days; assay type: functional; details: 336 h
[8] = biological target: T1, Peroxisome proliferator-activated receptor alpha; test: Agonist activity at GAL4 tagged human PPARalpha ligand binding domain expressed in HEK293 cells by luciferase reporter gene assay; assay type: cell-based; details: read-out: EC50
[9] = biological target: T2, Peroxisome proliferator-activated receptor gamma (Homo sapiens, UniProt P37231)
T2 sequence (P37231 whole entry): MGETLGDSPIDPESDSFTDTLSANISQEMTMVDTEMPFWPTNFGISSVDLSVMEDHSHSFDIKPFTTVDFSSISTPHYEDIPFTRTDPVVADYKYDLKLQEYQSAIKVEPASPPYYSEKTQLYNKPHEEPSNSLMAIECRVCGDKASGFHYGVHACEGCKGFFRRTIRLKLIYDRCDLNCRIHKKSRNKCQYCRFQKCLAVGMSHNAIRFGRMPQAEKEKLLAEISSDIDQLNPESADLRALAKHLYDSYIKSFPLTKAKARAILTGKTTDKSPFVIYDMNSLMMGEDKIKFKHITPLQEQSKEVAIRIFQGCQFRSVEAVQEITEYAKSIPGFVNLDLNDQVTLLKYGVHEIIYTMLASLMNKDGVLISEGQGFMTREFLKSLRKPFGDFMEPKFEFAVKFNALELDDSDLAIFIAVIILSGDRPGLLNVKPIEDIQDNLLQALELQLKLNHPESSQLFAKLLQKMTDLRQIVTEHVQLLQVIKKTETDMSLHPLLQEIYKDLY
Description: (§1) Binding affinity to PPARgamma (unknown origin) using fluorescein-tagged dual PPARalpha/gamma activator by homogeneous fluorescence polarization binding assay

[10] = biological target: T2, Peroxisome proliferator-activated receptor gamma; test: Agonist activity at GAL4 tagged human PPARgamma ligand binding domain expressed in HEK293 cells by luciferase reporter gene assay; assay type: cell-based
[11] = biological target: Cytochrome P450 2C9 (Homo sapiens, UniProt P11712); test: Inhibition of CYP2C9 (unknown origin); assay type: ADME
Chain of Cytochrome P450 2C9 (P11712 whole entry): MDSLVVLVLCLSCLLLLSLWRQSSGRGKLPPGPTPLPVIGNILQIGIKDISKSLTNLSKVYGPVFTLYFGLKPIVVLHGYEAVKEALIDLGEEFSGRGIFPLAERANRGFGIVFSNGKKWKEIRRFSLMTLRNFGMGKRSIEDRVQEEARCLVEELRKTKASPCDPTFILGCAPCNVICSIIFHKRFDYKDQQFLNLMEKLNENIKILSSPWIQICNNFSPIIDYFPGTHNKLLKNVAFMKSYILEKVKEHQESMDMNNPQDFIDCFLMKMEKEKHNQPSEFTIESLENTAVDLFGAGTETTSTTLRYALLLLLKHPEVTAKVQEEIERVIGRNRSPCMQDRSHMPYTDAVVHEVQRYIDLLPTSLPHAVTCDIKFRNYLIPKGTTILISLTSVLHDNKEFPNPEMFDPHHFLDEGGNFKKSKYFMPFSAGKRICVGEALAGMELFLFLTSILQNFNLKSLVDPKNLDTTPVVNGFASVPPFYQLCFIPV

[12] = biological target: T2, Peroxisome proliferator-activated receptor gamma; remark: listed apart in the source
Description: as §1

Chain of Cytochrome P450 2C19 (P33261 whole entry): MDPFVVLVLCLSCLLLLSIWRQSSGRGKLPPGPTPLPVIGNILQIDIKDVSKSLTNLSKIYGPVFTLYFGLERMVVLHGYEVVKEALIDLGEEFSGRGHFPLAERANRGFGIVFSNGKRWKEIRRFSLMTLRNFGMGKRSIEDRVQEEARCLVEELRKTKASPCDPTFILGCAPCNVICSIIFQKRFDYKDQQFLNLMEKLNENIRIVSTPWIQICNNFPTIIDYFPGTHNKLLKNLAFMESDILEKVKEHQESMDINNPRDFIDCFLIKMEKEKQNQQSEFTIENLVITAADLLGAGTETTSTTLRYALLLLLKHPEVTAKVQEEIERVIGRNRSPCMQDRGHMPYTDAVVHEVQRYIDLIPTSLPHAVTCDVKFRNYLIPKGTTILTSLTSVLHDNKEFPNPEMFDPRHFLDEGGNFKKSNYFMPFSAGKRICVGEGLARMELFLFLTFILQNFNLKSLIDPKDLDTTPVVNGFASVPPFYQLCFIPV

Compound | IC50 [1] [nM] | IC50 [2] [nM] | half-life [3] [h] | bioavailability [5] [%] | Vdss [6] [L/kg] | EC50 [8] [nM] | IC50 [9] [nM] | EC50 [10] [nM] | IC50 [11] [nM] | IC50 [12] [nM] | inhibition in vivo at 10 mg/kg [4] [%] | inhibition in vivo at 10 mg/kg [7] [%]
Cc1oc(-c2ccccc2)nc1CCOc1ccc(C[C@@H]2CN(c3nccc(C(F)(F)F)n3)C[C@@H]2C(=O)O)cc1 | 8800 | 960 | 1.54 | 65 | 0.47 | 90 | 20 | 30 | 3200 | – | 48 | 37
Cc1oc(-c2ccccc2)nc1CCOc1ccc(C[C@@H]2CN(C(=O)Oc3ccccc3)C[C@@H]2C(=O)O)cc1 | – | 180 | – | – | – | 5 | 80 | 30 | – | – | 12 | 30
Cc1oc(-c2ccccc2)nc1CCOc1ccc(C[C@@H]2CN(C(=O)Oc3ccccc3)C[C@@H]2C(=O)O)cc1 (racemic) | – | 610 | – | – | – | 1 | – | 640 | – | 80 | – | –
CCOC(=O)N1C[C@@H](CCc2ccc(OCCc3nc(-c4ccccc4)oc3C)cc2)[C@@H](C(=O)O)C1 (racemic) | – | 3270 | – | – | – | 20 | 690 | 540 | – | – | – | –
CCOC(=O)N1C[C@H](CCc2ccc(OCCc3nc(-c4ccccc4)oc3C)cc2)[C@@H](C(=O)O)C1 (racemic) | – | 1810 | – | – | – | 10 | 1590 | > 10000 | – | – | – | –
Cc1oc(-c2ccccc2)nc1CCOc1cccc(C[C@H]2CN(C(=O)Oc3ccccc3)C[C@@H]2CC(=O)O)c1 (racemic) | – | 3090 | – | – | – | 850 | 210 | > 10000 | – | – | – | –

The next lines start with results.

IC50 [1] [nM] | IC50 [2] [nM] | half-life [3] [h] | bioavailability [5] [%] | Vdss [6] [L/kg] | EC50 [8] [nM] | IC50 [9] [nM] | EC50 [10] [nM] | IC50 [11] [nM] | IC50 [12] [nM] | Compound | inhibition in vivo at 10 mg/kg [4] [%] | inhibition in vivo at 10 mg/kg [7] [%]
– | 480 | – | – | – | 10 | 90 | 160 | – | – | Cc1oc(-c2ccccc2)nc1CCOc1ccc(CC[C@@H]2CN(C(=O)Oc3ccccc3)C[C@@H]2C(=O)O)cc1 (racemic) | – | –
– | 3250 | – | – | – | 980 | 340 | > 10000 | – | – | Cc1oc(-c2ccccc2)nc1CCOc1ccc(CC[C@H]2CN(C(=O)Oc3ccccc3)C[C@@H]2C(=O)O)cc1 (racemic) | – | –
